Like-named read-outs stand apart in the source and are kept apart here.
Columns and labels:
non-expressing oocytes [1] = assay type: cell-based, Xenopus laevis; settings: non-expressing oocytes, total [3H]CQ transport, normalised to the oocyte type control
Outline: (§1)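 Oocytes (ten per treatment, ≥4 independent frogs/days) were preloaded by injecting VF-6 in 25 nL ND96 at pH 5.0, 5.5, 6.0 or 7.0, or Na^+-free choline buffer, then uptake run 1.5 h, 27.5 °C, ND96 pH 5.5 by default. Internal concentrations assumed ~400 nL oocyte volume.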

PfCRT^Ecu1110 [2] = target: T1, PfCRT^Ecu1110 (Plasmodium falciparum, UniProt Q9N623, A220S/I356L/K76T/N326D); assay: cell-based; assay type: cell-based; settings: for Uptake of [3H]CQ (% PfCRTEcu1110 control), trans-stimulation / PfCRT-mediated [3H]CQ transport, trans-stimulation (% PfCRTEcu1110 control): PfCRTEcu1110 oocytes; for Uptake of [3H]CQ (% PfCRTEcu1110 control), trans-stimulation: total [3H]CQ transport, normalised to the oocyte type control; for PfCRT-mediated [3H]CQ transport, trans-stimulation (% PfCRTEcu1110 control): normalised to oocyte type control; for [3H]CQ transport (% PfCRTDd2 control), trans-stimulation, PfCRTEcu1110: PfCRT-mediated component (background subtracted), sheet title says normalised to PfCRTDd2 control, mean ± SEM, SEM
T1 sequence (Q9N623 whole entry A220S/I356L/K76T/N326D): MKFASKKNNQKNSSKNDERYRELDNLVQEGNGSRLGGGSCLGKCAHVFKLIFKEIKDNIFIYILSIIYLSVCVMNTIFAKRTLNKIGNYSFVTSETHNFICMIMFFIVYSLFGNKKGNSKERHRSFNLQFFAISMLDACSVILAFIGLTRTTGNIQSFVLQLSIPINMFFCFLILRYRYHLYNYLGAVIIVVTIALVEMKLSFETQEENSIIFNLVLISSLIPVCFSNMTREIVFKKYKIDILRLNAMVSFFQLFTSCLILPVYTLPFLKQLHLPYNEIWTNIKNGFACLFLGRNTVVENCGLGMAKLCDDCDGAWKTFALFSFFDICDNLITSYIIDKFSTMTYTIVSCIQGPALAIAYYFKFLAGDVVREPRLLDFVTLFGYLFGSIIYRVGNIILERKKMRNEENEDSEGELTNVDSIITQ
Outline: as §1

PfNT1 = target: T2, PfNT1 (Plasmodium falciparum, UniProt Q8IDM6); assay: cell-based; assay type: cell-based; settings: PfNT1 oocytes, total [3H]CQ transport, normalised to the oocyte type control
T2 construct: expressed in transfected cells; host or cells: Xenopus laevis oocytes (stage V-VI), cRNA-injected
T2 sequence (Q8IDM6 whole entry): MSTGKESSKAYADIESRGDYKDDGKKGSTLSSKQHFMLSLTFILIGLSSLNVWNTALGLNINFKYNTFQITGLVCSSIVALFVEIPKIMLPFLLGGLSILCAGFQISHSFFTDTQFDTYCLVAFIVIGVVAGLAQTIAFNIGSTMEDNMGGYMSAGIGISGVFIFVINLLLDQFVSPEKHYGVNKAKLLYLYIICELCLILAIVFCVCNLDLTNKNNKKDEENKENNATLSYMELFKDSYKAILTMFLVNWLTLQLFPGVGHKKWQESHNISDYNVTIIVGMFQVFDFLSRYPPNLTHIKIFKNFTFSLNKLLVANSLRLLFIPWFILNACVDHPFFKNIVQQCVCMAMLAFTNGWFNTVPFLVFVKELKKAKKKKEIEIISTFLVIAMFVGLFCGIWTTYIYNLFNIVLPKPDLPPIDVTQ
Outline: as §1

PfCRT^3D7 [3] = target: T3, PfCRT^3D7 (Plasmodium falciparum, UniProt Q8IBZ9); assay: cell-based; assay type: cell-based; settings: PfCRT3D7 oocytes; for Uptake of [3H]CQ (% PfCRT3D7 control), trans-stimulation: total [3H]CQ transport, normalised to the oocyte type control; for PfCRT-mediated [3H]CQ transport, trans-stimulation (% PfCRT3D7 control): normalised to oocyte type control
T3 sequence (Q8IBZ9 59-398): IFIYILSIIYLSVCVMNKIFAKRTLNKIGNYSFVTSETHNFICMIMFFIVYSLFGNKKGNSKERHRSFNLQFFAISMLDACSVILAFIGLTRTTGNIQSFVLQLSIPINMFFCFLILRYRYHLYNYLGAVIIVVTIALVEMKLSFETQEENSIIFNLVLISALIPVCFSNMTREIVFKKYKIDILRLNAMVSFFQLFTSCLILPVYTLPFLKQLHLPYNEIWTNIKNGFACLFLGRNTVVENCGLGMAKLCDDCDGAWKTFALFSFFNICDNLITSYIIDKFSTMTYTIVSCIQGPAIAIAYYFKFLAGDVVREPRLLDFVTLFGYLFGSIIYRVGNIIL
Outline: as §1

PfCRT^Dd2 [4] = target: T4, PfCRT^Dd2 (Plasmodium falciparum, UniProt Q9N623, A220S/I356T/K76T/M74I/N326S/N75E/Q271E/R371I); assay: cell-based; assay type: cell-based; settings: for Uptake of [3H]CQ (% PfCRTDd2 control), trans-stimulation / PfCRT-mediated [3H]CQ transport, trans-stimulation (% PfCRTDd2 control): PfCRTDd2 oocytes; for Uptake of [3H]CQ (% PfCRTDd2 control), trans-stimulation: total [3H]CQ transport, normalised to the oocyte type control; for PfCRT-mediated [3H]CQ transport, trans-stimulation (% PfCRTDd2 control): normalised to oocyte type control; for [3H]CQ transport (% PfCRTDd2 control), trans-stimulation, PfCRTDd2: PfCRT-mediated component (background subtracted), mean ± SEM, SEM
T4 sequence (Q9N623 whole entry A220S/I356T/K76T/M74I/N326S/N75E/Q271E/R371I): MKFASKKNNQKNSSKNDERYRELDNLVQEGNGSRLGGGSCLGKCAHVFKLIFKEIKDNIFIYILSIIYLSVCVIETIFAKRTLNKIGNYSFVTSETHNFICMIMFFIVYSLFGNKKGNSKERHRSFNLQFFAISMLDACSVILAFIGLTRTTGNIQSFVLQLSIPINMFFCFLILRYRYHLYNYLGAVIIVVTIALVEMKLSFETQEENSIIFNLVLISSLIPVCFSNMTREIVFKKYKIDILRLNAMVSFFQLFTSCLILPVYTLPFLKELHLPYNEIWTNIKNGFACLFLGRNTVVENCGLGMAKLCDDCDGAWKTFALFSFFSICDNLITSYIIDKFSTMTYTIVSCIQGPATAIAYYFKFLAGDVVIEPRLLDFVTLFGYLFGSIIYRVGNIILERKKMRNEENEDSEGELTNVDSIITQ
Outline: as §1

PfCRT^3D7 [5] = target: T3, PfCRT^3D7; assay: cell-based; assay type: cell-based; settings: PfCRT3D7 oocytes, total [3H]CQ transport, normalised to the oocyte type control
Outline: (§2)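 Inward transport into oocyte cytosol from pH 5.5 medium models PfCRT efflux from the acidic digestive vacuole. Incubation 1.5 h, 27.5 °C; termination by ice-cold washes; lysate radioactivity counted.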

PfCRT^Ecu1110 [6] = target: T1, PfCRT^Ecu1110; assay: [3H]CQ uptake into Xenopus oocytes, cis-inhibition by unlabelled solute; assay type: cell-based; settings: for Uptake of [3H]CQ (% PfCRTEcu1110 control), cis-inhibition / PfCRT-mediated [3H]CQ transport, cis-inhibition (% PfCRTEcu1110 control): PfCRTEcu1110 oocytes; for Uptake of [3H]CQ (% PfCRTEcu1110 control), cis-inhibition: total [3H]CQ transport, normalised to the oocyte type control; for PfCRT-mediated [3H]CQ transport, cis-inhibition (% PfCRTEcu1110 control): background [3H]CQ accumulation subtracted, normalised to oocyte type control; for [3H]CQ transport (% PfCRTEcu1110 control), cis-inhibition, PfCRTEcu1110: PfCRT-mediated component (background subtracted), sheet title says normalised to PfCRTDd2 control, mean ± SEM, SEM
Outline: as §2

PfCRT^Dd2 [7] = target: T4, PfCRT^Dd2; assay: as above; assay type: cell-based; settings: PfCRTDd2 oocytes, background [3H]CQ accumulation subtracted, normalised to oocyte type control
Outline: as §2

non-expressing oocytes [8] = assay: cells; assay type: cell-based, Xenopus laevis; settings: non-expressing oocytes, total [3H]CQ transport, normalised to the oocyte type control
Outline: as §2

[9] = [test solute]i = 45 mM (30 mM for some solutes due to solubility)
[10] = [test solute]i = 5 mM (intracellular)
[11] = [test solute]i = 45 mM (intracellular; 30 mM for some solutes due to solubility)
[12] = [test solute]i = 5 mM (injected)

Substance: ASLD [AD-4]
- Uptake of [3H]CQ (% non-expressing oocyte control), trans-stimulation (non-expressing oocytes [1]; [test solute]i = 5 mM): 100 ± 4.9 % non-expressing oocyte control
- Uptake of [3H]CQ (% non-expressing oocyte control), trans-stimulation (non-expressing oocytes [1]; [9]): 98 ± 2.6 % non-expressing oocyte control
- Uptake of [3H]CQ (% PfCRTEcu1110 control), trans-stimulation (PfCRT^Ecu1110 [2]; [test solute]i = 5 mM): 100 ± 3.2 % PfCRTEcu1110 control
- Uptake of [3H]CQ (% PfCRTEcu1110 control), trans-stimulation (PfCRT^Ecu1110 [2]; [9]): 99 ± 3.2 % PfCRTEcu1110 control
- PfCRT-mediated [3H]CQ transport, trans-stimulation (% PfCRTEcu1110 control) (PfCRT^Ecu1110 [2]; [10]): 98 ± 4.1 % PfCRTEcu1110 control
- PfCRT-mediated [3H]CQ transport, trans-stimulation (% PfCRTEcu1110 control) (PfCRT^Ecu1110 [2]; [11]): 97 ± 2.9 % PfCRTEcu1110 control
- [3H]CQ transport (% PfCRTDd2 control), trans-stimulation, PfCRTEcu1110 (PfCRT^Ecu1110 [2]; [12]): 30 ± 1.7 % PfCRTEcu1110 control
- [3H]CQ transport (% PfCRTDd2 control), trans-stimulation, PfCRTEcu1110 (PfCRT^Ecu1110 [2]; [9]): 29 ± 1.4 % PfCRTEcu1110 control
- Uptake of [3H]CQ (% PfNT1 control), trans-stimulation (PfNT1; [test solute]i = 5 mM): 99 ± 2.5 % PfNT1 control
- Uptake of [3H]CQ (% PfNT1 control), trans-stimulation (PfNT1; [9]): 96 ± 2.2 % PfNT1 control
- Uptake of [3H]CQ (% PfCRT3D7 control), trans-stimulation (PfCRT^3D7 [3]; [test solute]i = 5 mM): 99 ± 3.7 % PfCRT3D7 control
- Uptake of [3H]CQ (% PfCRT3D7 control), trans-stimulation (PfCRT^3D7 [3]; [9]): 100 ± 2.6 % PfCRT3D7 control
- PfCRT-mediated [3H]CQ transport, trans-stimulation (% PfCRT3D7 control) (PfCRT^3D7 [3]; [10]): 97 ± 2.0 % PfCRT3D7 control
- PfCRT-mediated [3H]CQ transport, trans-stimulation (% PfCRT3D7 control) (PfCRT^3D7 [3]; [11]): 98 ± 3.3 % PfCRT3D7 control
- Uptake of [3H]CQ (% PfCRTDd2 control), trans-stimulation (PfCRT^Dd2 [4]; [test solute]i = 5 mM): 98 ± 3.3 % PfCRTDd2 control
- Uptake of [3H]CQ (% PfCRTDd2 control), trans-stimulation (PfCRT^Dd2 [4]; [9]): 97 ± 3.9 % PfCRTDd2 control
- PfCRT-mediated [3H]CQ transport, trans-stimulation (% PfCRTDd2 control) (PfCRT^Dd2 [4]; [10]): 96 ± 2.9 % PfCRTDd2 control
- PfCRT-mediated [3H]CQ transport, trans-stimulation (% PfCRTDd2 control) (PfCRT^Dd2 [4]; [11]): 95 ± 2.6 % PfCRTDd2 control
- [3H]CQ transport (% PfCRTDd2 control), trans-stimulation, PfCRTDd2 (PfCRT^Dd2 [4]; [12]): 96 ± 2.9 % PfCRTDd2 control
- [3H]CQ transport (% PfCRTDd2 control), trans-stimulation, PfCRTDd2 (PfCRT^Dd2 [4]; [9]): 95 ± 2.6 % PfCRTDd2 control
- Uptake of [3H]CQ (% PfCRT3D7 control), cis-inhibition (PfCRT^3D7 [5]; [test solute] = 0.5 mM): 98 ± 4.4 % PfCRT3D7 control
- Uptake of [3H]CQ (% PfCRT3D7 control), cis-inhibition (PfCRT^3D7 [5]; [test solute] = 1 mM): 99 ± 4.7 % PfCRT3D7 control
- Uptake of [3H]CQ (% PfCRT3D7 control), cis-inhibition (PfCRT^3D7 [5]; [test solute] = 2 mM): 99 ± 6.1 % PfCRT3D7 control
- Uptake of [3H]CQ (% PfCRTEcu1110 control), cis-inhibition (PfCRT^Ecu1110 [6]; [test solute] = 0.5 mM): 49 ± 9.7 % PfCRTEcu1110 control
- Uptake of [3H]CQ (% PfCRTEcu1110 control), cis-inhibition (PfCRT^Ecu1110 [6]; [test solute] = 1 mM): 32 ± 8.5 % PfCRTEcu1110 control
- Uptake of [3H]CQ (% PfCRTEcu1110 control), cis-inhibition (PfCRT^Ecu1110 [6]; [test solute] = 2 mM): 26 ± 5.6 % PfCRTEcu1110 control
- PfCRT-mediated [3H]CQ transport, cis-inhibition (% PfCRTEcu1110 control) (PfCRT^Ecu1110 [6]; [test solute] = 0.5 mM): 42 ± 2.1 % PfCRTEcu1110 control
- PfCRT-mediated [3H]CQ transport, cis-inhibition (% PfCRTEcu1110 control) (PfCRT^Ecu1110 [6]; [test solute] = 1 mM): 28 ± 3.4 % PfCRTEcu1110 control
- PfCRT-mediated [3H]CQ transport, cis-inhibition (% PfCRTEcu1110 control) (PfCRT^Ecu1110 [6]; [test solute] = 2 mM): 21 ± 1.1 % PfCRTEcu1110 control
- [3H]CQ transport (% PfCRTEcu1110 control), cis-inhibition, PfCRTEcu1110 (PfCRT^Ecu1110 [6]; [test solute] = 0.5 mM): 13 ± 0.2 % PfCRTEcu1110 control
- [3H]CQ transport (% PfCRTEcu1110 control), cis-inhibition, PfCRTEcu1110 (PfCRT^Ecu1110 [6]; [test solute] = 2 mM): 6.0 ± 0.03 % PfCRTEcu1110 control
- PfCRT-mediated [3H]CQ transport, cis-inhibition (% PfCRTDd2 control) (PfCRT^Dd2 [7]; [test solute] = 0.5 mM): 31 ± 1.9 % PfCRTDd2 control
- PfCRT-mediated [3H]CQ transport, cis-inhibition (% PfCRTDd2 control) (PfCRT^Dd2 [7]; [test solute] = 1 mM): 22 ± 0.8 % PfCRTDd2 control
- PfCRT-mediated [3H]CQ transport, cis-inhibition (% PfCRTDd2 control) (PfCRT^Dd2 [7]; [test solute] = 2 mM): 12 ± 0.3 % PfCRTDd2 control
- Uptake of [3H]CQ (% non-expressing oocyte control), cis-inhibition (non-expressing oocytes [8]; [test solute] = 0.5 mM): 99 ± 5.3 % non-expressing oocyte control
- Uptake of [3H]CQ (% non-expressing oocyte control), cis-inhibition (non-expressing oocytes [8]; [test solute] = 1 mM): 99 ± 5.2 % non-expressing oocyte control
- Uptake of [3H]CQ (% non-expressing oocyte control), cis-inhibition (non-expressing oocytes [8]; [test solute] = 2 mM): 99 ± 4.6 % non-expressing oocyte control
